These results are taken from BindingDB's records for doi:10.1111/j.1747-0285.2008.00752.x (Universitat Aut&Ogravenoma De Barcelona, 2009).

Common to all, as to assay: Inhibition Assay
In one test the target is T1, Carboxypeptidase A1 (Bos taurus, UniProt P00730).
T1 sequence (P00730 whole entry): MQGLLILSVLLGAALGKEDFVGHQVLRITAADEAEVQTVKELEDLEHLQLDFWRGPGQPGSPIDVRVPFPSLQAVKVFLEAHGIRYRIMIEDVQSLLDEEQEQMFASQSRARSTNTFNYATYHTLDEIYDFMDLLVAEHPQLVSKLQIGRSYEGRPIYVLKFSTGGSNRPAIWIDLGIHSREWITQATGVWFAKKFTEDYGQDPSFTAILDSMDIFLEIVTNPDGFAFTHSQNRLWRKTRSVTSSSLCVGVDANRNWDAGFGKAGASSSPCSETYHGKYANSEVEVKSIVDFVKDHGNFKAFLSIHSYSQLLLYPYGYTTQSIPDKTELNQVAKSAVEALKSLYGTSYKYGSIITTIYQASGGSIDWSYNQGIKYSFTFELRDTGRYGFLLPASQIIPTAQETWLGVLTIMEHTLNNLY
From the text: (§1) The aromatic compounds screening were characterized by molecular docking as well as by in vitro inhibition assay against carboxypeptidase(CPs) of different specifications and natural origin.

Another test concerns the target T2, Carboxypeptidase B (Helicoverpa zea, UniProt Q3T905).
T2 sequence (Q3T905 whole entry): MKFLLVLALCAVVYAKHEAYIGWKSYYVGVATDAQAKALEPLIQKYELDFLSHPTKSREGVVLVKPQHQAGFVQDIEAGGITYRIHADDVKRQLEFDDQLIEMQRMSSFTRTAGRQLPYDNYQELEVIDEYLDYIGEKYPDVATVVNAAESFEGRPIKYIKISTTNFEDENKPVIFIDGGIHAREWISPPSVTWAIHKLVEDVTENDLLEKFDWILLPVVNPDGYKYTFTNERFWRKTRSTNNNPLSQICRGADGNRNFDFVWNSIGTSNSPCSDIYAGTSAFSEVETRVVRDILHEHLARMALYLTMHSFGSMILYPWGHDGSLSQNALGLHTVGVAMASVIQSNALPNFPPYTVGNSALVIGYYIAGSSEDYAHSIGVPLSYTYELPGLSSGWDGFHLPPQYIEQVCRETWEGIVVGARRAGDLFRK
Excerpt: as §1

The target of the next test is T3, Carboxypeptidase B2 (Homo sapiens, UniProt Q96IY4).
T3 sequence (Q96IY4 whole entry): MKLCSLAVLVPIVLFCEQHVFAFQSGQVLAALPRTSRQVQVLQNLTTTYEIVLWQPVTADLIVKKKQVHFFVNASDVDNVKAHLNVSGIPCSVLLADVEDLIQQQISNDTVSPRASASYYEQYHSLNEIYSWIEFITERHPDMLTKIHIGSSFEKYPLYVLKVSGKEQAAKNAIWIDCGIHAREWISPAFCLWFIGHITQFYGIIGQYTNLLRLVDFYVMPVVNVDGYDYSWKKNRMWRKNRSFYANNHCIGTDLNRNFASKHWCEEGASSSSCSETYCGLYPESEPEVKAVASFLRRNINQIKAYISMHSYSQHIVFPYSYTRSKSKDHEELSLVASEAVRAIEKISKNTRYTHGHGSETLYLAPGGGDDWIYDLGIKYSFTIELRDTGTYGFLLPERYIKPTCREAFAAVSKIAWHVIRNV
Excerpt: as §1

For orientation: Ki means the dissociation constant of the complex between target and ligand, obtained from inhibition or displacement. A lower Ki goes with tighter binding. In the case of `O=c1[nH]c(CN(Cc2ccccc2)S(=O)(=O)c2ccc(F)cc2)nc2ccccc12` [N-benzyl-4-fluoro-N-((4-hydroxyquinazolin-2-yl)methylbenzensulfonamide, 9], the values for the Ki on Carboxypeptidase A1, at Carboxypeptidase B and on Carboxypeptidase B2 were 37 µM, 82 µM and 14.3 µM, respectively.

For `O=C(Cn1nnc(-c2cccs2)n1)N1CCc2ccccc2C1` [1-(3,4-dihydroisoquinolin-2(1H)-yl)-2-(5thiophen-2-yl)-2H-tetrazol-2-yl)ethanone, 3], the values for the Ki at Carboxypeptidase A1, at Carboxypeptidase B and on Carboxypeptidase B2 were 520 µM, 62 µM and 32 µM, respectively.

In the case of `Nc1nccc2ccc(CC(N)C(=O)O)cc12` (stereo not given) [2-amino-3-(1-aminoisoquinolin-7-yl)propanoic acid, 2], the Ki on Carboxypeptidase A1 is 290 µM; on Carboxypeptidase B, 129 µM; at Carboxypeptidase B2, 145 µM.

Turning to `COc1ccc2[nH]c(=O)c(CN(CCO)C(=S)Nc3ccc(C)cc3)cc2c1` [1-(2-hydroxyethyl)-1-((6-methoxy-2-oxo-1,2-dihydroquinolin-3-yl)methyl)3-yl)methyl)-3-p-tolythiourea, 7], the Ki is 420 µM at Carboxypeptidase A1, 20.5 µM on Carboxypeptidase B and 22.5 µM on Carboxypeptidase B2.

Consider `Nc1nccc2cc(CC(N)C(=O)O)ccc12` (stereo not given) [2-Amino-3-(1-aminoisoquinolin-6-yl)propanoic acid, 1], for which the Ki on Carboxypeptidase A1 stood at 280 µM; at Carboxypeptidase B it was 100 µM; at Carboxypeptidase B2 it was 220 µM.

In the case of `Cc1ccc(C(=O)CSc2nnc(COc3ccc4ccccc4c3)o2)cc1` [2-(5-(naphthalen-2-yloxy)methyl)-1,3,4-oxadiazol-2-ylthio)-1-p-tolylethanone, 5], the results for the Ki at Carboxypeptidase A1, at Carboxypeptidase B and at Carboxypeptidase B2 were 58 µM, 1.6 µM and 1.9 µM, respectively.

Regarding `O=C(O)CCSc1nnc(COc2cccc3ccccc23)n1-c1ccccc1` [3-(5-((naphthalen-1-yloxy)methyl)-4-pheny-4H-1,2,4-triazol-3-ythio)propanoic acid, 8], the Ki on Carboxypeptidase A1 amounted to 10.4 µM; at Carboxypeptidase B, 35 µM; at Carboxypeptidase B2, 11.8 µM.

In the case of `Cc1ccc2[nH]c(=O)c(CN(Cc3cccs3)C(=S)NC(C)c3ccccc3)cc2c1` (stereo not given) [1-((6-methyl-2-oxo-1,2-dihydroquinolin-3-yl)methyl)-3-(1-phenylethyl)-1-(thiophen-2-ylmethyl)thiourea, 10], the Ki on Carboxypeptidase A1 turned out to be 3.8 µM; on Carboxypeptidase B it was 0.58 µM; on Carboxypeptidase B2 it was 1.6 µM.

Consider `COC(=O)c1ccccc1NC(=S)N(Cc1ccco1)Cc1cc2cccc(C)c2[nH]c1=O` [methyl 2-(3-furan-2-ylmethyl)-3-((8-methyl-2-oxo-1,2,-dihydroquinolin-3-yl)methyl)thioureido)benzoate, 11], for which the Ki is 15 µM at Carboxypeptidase A1, 1.2 µM on Carboxypeptidase B and 13.3 µM at Carboxypeptidase B2.

On to `Cc1ccc(C(=O)CSc2nnc(COc3cccc4cccnc34)o2)cc1` [1-(4-methylphenyl)-2-[[5-(8-quinolinyloxymethyl)-1,3,4-oxadiazol-2-yl]thio]ethanone], for which the Ki on Carboxypeptidase A1 amounted to 32 µM; at Carboxypeptidase B, 14 µM; on Carboxypeptidase B2, 50 µM.
